# Data reported in patent US20110224210A1, “NOVEL BIS-AMIDES AS ANTI-MALARIAL AGENTS” (priority 2008, published 2011).
# Test system: P. falciparum K1 (strain resistant to chloroquine and pyrimethamine), erythrocytic stages
# Assay: Plasmodium falciparum in vitro assay, [3H] hypoxanthine incorporation
# Type: cell-based
# Conditions: Plasmodium falciparum, K1, P. falciparum strain K1; [3H] hypoxanthine incorporation; read-out: IC50 (nM) on K1
# Procedure, shortened: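 K1 strain parasites grown in human red cells, 2.5% haematocrit, 0.3% parasitaemia, 37 °C, 4% CO2/3% O2; compounds in seven serial doubling dilutions.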
row,IC50,SMILES
1,63 nM,"CN(CCN(C)C(=O)[C@H](Cc1ccccc1)N(Cc1ccc(N2CCOCC2)cc1)C(=O)C=Cc1ccc(C(F)(F)F)cc1)Cc1cnc[nH]1 [Example 269, (S)-N-[1-({2-[(3H-Imidazol-4-ylmethyl)-methyl-amino]-ethyl}-methyl-carbamoyl)-2-phenyl-ethyl]-N-(4-morpholin-4-yl-benzyl)-3-(4-trifluoromethyl-phenyl)-acrylamide]"
2,90 nM,"CN(C)CC1CCN(C(=O)[C@H](Cc2ccccc2)N(Cc2ccc(-c3ccccn3)cc2)C(=O)C=Cc2ccc(C(F)(F)F)nc2)CC1 [Example 51, (S)-N-[1-Benzyl-2-(4-dimethylaminomethyl-piperidin-1-yl)-2-oxo-ethyl]-N-(4-pyridin-2-yl-benzyl)-3-(6-trifluoromethyl-pyridin-3-yl)-acrylamide]"
3,324 nM,"COCCN(C)C(=O)[C@H](Cc1ccccc1)N(Cc1ccc(N2CCN(C(C)=O)CC2)cc1)C(=O)C=Cc1nc(C)oc1C [Example 110, (S)-N-[4-(4-Acetyl-piperazin-1-yl)-benzyl]-3-(2,5-dimethyl-oxazol-4-yl)-N-{1-[(2-methoxy-ethyl)-methyl-carbamoyl]-2-phenyl-ethyl}-acrylamide]"
4,104 nM,"COCCN(C)C(=O)[C@H](Cc1ccccc1)N(Cc1ccc(N2CCN(C(C)=O)CC2)cc1)C(=O)C=Cc1cnc(OC)nc1 [Example 118, (S)-N-[4-(4-Acetyl-piperazin-1-yl)-benzyl]-N-{1-[(2-methoxy-ethyl)-methyl-carbamoyl]-2-phenyl-ethyl}-3-(2-methoxy-pyrimidin-5-yl)-acrylamide]"
5,40 nM,"COCCN(C)C(=O)[C@H](Cc1ccccc1)N(Cc1ccc(-c2ccccn2)cc1)C(=O)C=Cc1cc(C)nn1C [Example 74, (S)-3-(2,5-Dimethyl-2H-pyrazol-3-yl)-N-{1-[(2-methoxy-ethyl)-methyl-carbamoyl]-2-phenyl-ethyl}-N-(4-pyridin-2-yl-benzyl)-acrylamide]"
6,33 nM,"CN(CCN(C)C(=O)[C@H](Cc1ccccc1)N(Cc1ccc(-c2ccccn2)cc1)C(=O)C=Cc1ccc(C(F)(F)F)cc1)Cc1ccsc1 [Example 232, (S)-N-(1-{Methyl-[2-(methyl-thiophen-3-ylmethyl-amino)-ethyl]-carbamoyl}-2-phenyl-ethyl)-N-(4-pyridin-2-yl-benzyl)-3-(4-trifluoromethyl-phenyl)-acrylamide]"
7,12 nM,"CN(CCOCc1cccnc1)C(=O)[C@H](Cc1ccccc1)N(Cc1ccc(N2CCOCC2)cc1)C(=O)C=Cc1ccc(C(F)(F)F)cc1 [Example 203, (S)-N-(1-{Methyl-[2-(pyridin-3-ylmethoxy)-ethyl]-carbamoyl}-2-phenyl-ethyl)-N-(4-morpholin-4-yl-benzyl)-3-(4-trifluoromethyl-phenyl)-acrylamide]"
8,84 nM,"COCCN(C)C(=O)[C@H](Cc1ccccc1)N(Cc1ccc(N2CCN(C(C)=O)CC2)cc1)C(=O)C=Cc1ccc(Cl)nc1 [Example 113, (S)-N-[4-(4-Acetyl-piperazin-1-yl)-benzyl]-3-(6-chloro-pyridin-3-yl)-N-{1-[(2-methoxy-ethyl)-methyl-carbamoyl]-2-phenyl-ethyl}-acrylamide]"
9,24 nM,"O=C([C@H](Cc1ccccc1)N(Cc1ccc(N2CCOCC2)nc1)C(=O)C=Cc1ccc(C(F)(F)F)nc1)N1CCC(Cc2ccccc2)CC1 [Example 144, (S)-N-[1-Benzyl-2-(4-benzyl-piperidin-1-yl)-2-oxo-ethyl]-N-(6-morpholin-4-yl-pyridin-3-ylmethyl)-3-(6-trifluoromethyl-pyridin-3-yl)-acrylamide]"
10,52 nM,"CN(CCN(C)C(=O)[C@H](Cc1ccccc1)N(Cc1ccc(-c2ccccn2)cc1)C(=O)C=Cc1ccc(C(F)(F)F)cc1)Cc1ccc(Br)o1 [Example 219, (S)-N-[1-({2-[(5-Bromo-furan-2-ylmethyl)-methyl-amino]-ethyl}-methyl-carbamoyl)-2-phenyl-ethyl]-N-(4-pyridin-2-yl-benzyl)-3-(4-trifluoromethyl-phenyl)-acrylamide]"
11,344 nM,"COCCN(C)C(=O)[C@H](Cc1ccccc1)N(Cc1ccc(N2CCOCC2)cc1)C(=O)C=Cc1cnc(OC)nc1 [Example 72, (S)-N-{1-[(2-Methoxy-ethyl)-methyl-carbamoyl]-2-phenyl-ethyl}-3-(2-methoxy-pyrimidin-5-yl)-N-(4-morpholin-4-yl-benzyl)-acrylamide]"
12,107 nM,"COCCN(C)C(=O)[C@H](Cc1ccccc1)N(Cc1ccc(N2CCN(C(C)=O)CC2)cc1)C(=O)C=Cc1ccc(C)cn1 [Example 114, (S)-N-[4-(4-Acetyl-piperazin-1-yl)-benzyl]-N-{1-[(2-methoxy-ethyl)-methyl-carbamoyl]-2-phenyl-ethyl}-3-(5-methyl-pyridin-2-yl)-acrylamide]"
13,61 nM,"CCN(CC)c1ccc(CN(C)CCN(C)C(=O)[C@H](Cc2ccccc2)N(Cc2ccc(N3CCN(C(C)=O)CC3)cc2)C(=O)C=Cc2ccc(C(F)(F)F)cc2)cc1 [Example 239, (S)-N-[4-(4-Acetyl-piperazin-1-yl)-benzyl]-N-[1-({2-[(4-diethylamino-benzyl)-methyl-amino]-ethyl}-methyl-carbamoyl)-2-phenyl-ethyl]-3-(4-trifluoromethyl-phenyl)-acrylamide]"
14,20 nM,"CN(CCN(C)C(=O)[C@H](Cc1ccccc1)N(Cc1ccc(-c2ccccn2)cc1)C(=O)C=Cc1ccc(C(F)(F)F)cc1)Cc1ccc(Cl)nc1 [Example 221, (S)-N-[1-({2-[(6-Chloro-pyridin-3-ylmethyl)-methyl-amino]-ethyl}-methyl-carbamoyl)-2-phenyl-ethyl]-N-(4-pyridin-2-yl-benzyl)-3-(4-trifluoromethyl-phenyl)-acrylamide]"
15,27 nM,"CC(=O)N1CCN(c2ccc(CN(C(=O)C=Cc3ccc(C(F)(F)F)cc3)[C@@H](Cc3ccccc3)C(=O)N(C)CCN(C)Cc3cccnc3)cc2)CC1 [Example 241, (S)-N-[4-(4-Acetyl-piperazin-1-yl)-benzyl]-N-(1-{methyl-[2-(methyl-pyridin-3-ylmethyl-amino)-ethyl]-carbamoyl}-2-phenyl-ethyl)-3-(4-trifluoromethyl-phenyl)-acrylamide]"
16,< 8 nM,"COCCN(C)C(=O)[C@H](Cc1ccccc1)N(Cc1ccc(N2CCN(C(C)=O)CC2)cc1)C(=O)C=Cc1ccc(C(F)(F)F)cn1 [Example 116, (S)-N-[4-(4-Acetyl-piperazin-1-yl)-benzyl]-N-{1-[(2-methoxy-ethyl)-methyl-carbamoyl]-2-phenyl-ethyl}-3-(5-trifluoromethyl-pyridin-2-yl)-acrylamide]"
17,176 nM,"Cc1nc(C)c(C=CC(=O)N(Cc2ccc(-c3ccccn3)cc2)[C@@H](Cc2ccccc2)C(=O)N2CCC(N(C)C)CC2)s1 [Example 10, (S)-N-[1-Benzyl-2-(4-dimethylamino-piperidin-1-yl)-2-oxo-ethyl]-3-(2,4-dimethyl-thiazol-5-yl)-N-(4-pyridin-2-yl-benzyl)-acrylamide]"
18,28 nM,"CC(=O)N1CCN(c2ccc(CN(C(=O)C=Cc3ccc(C(F)(F)F)cc3)[C@@H](Cc3ccccc3)C(=O)N(C)CCN(C)Cc3cccc(O)c3)cc2)CC1 [Example 240, (S)-N-[4-(4-Acetyl-piperazin-1-yl)-benzyl]-N-[1-({2-[(3-hydroxy-benzyl)-methyl-amino]-ethyl}-methyl-carbamoyl)-2-phenyl-ethyl]-3-(4-trifluoromethyl-phenyl)-acrylamide]"
19,1 nM,"O=C([C@H](Cc1ccccc1)N(Cc1ccc(-c2ccccn2)cc1)C(=O)C=Cc1ccc(C(F)(F)F)cc1)N1CCC(Cc2ccccc2)CC1 [Example 46, (S)-N-[1-Benzyl-2-(4-benzyl-piperidin-1-yl)-2-oxo-ethyl]-N-(4-pyridin-2-yl-benzyl)-3-(4-trifluoromethyl-phenyl)-acrylamide]"
20,144 nM,"COCCN(C)C(=O)[C@H](Cc1ccccc1)N(Cc1ccc(N2CCOCC2)cc1)C(=O)C=Cc1ccc(Cl)nc1 [Example 70, (S)-3-(6-Chloro-pyridin-3-yl)-N-{1-[(2-methoxy-ethyl)-methyl-carbamoyl]-2-phenyl-ethyl}-N-(4-morpholin-4-yl-benzyl)-acrylamide]"
21,77 nM,"Cc1ccc(C=CC(=O)N(Cc2ccc(N3CCOCC3)nc2)[C@@H](Cc2ccccc2)C(=O)N2CCOCC2)cc1 [Example 147, (S)-N-(1-Benzyl-2-morpholin-4-yl-2-oxo-ethyl)-N-(6-morpholin-4-yl-pyridin-3-ylmethyl)-3-p-tolyl-acrylamide]"
22,494 nM,"COCCN(C)C(=O)[C@H](Cc1ccccc1)N(Cc1ccc(N2CCOCC2)cc1)C(=O)C=Cc1csnn1 [Example 66, (S)-N-{1-[(2-Methoxy-ethyl)-methyl-carbamoyl]-2-phenyl-ethyl}-N-(4-morpholin-4-yl-benzyl)-3-[1,2,3]thiadiazol-4-yl-acrylamide]"
23,100 nM,CC(=O)Nc1ccc(CN(C)C(=O)[C@H](Cc2ccccc2)N(Cc2ccc(N3CCOCC3)cc2)C(=O)C=Cc2ccc(C(F)(F)F)nc2)cc1 [Example 271]
24,214 nM,"COCCN(C)C(=O)[C@H](Cc1ccccc1)N(Cc1ccc(N2CCN(C(C)=O)CC2)cc1)C(=O)C=Cc1ccc(OC)nn1 [Example 111, (S)-N-[4-(4-Acetyl-piperazin-1-yl)-benzyl]-N-{1-[(2-methoxy-ethyl)-methyl-carbamoyl]-2-phenyl-ethyl}-3-(6-methoxy-pyridazin-3-yl)-acrylamide]"
25,349 nM,COCCN(C)C(=O)C(Cc1ccnn1C)N(Cc1ccc(-c2ccncc2)cc1)C(=O)C=Cc1ccc(C(F)(F)F)cc1 (racemic) [Example 168]
26,170 nM,"CN(C)C1CCN(C(=O)[C@H](Cc2ccccc2)N(Cc2ccc(-c3cncnc3)cc2)C(=O)C=Cc2ccc(Cl)cn2)CC1 [Example 39, (S)-N-[1-Benzyl-2-(4-dimethylamino-piperidin-1-yl)-2-oxo-ethyl]-3-(5-chloro-pyridin-2-yl)-N-(4-pyrimidin-5-yl-benzyl)-acrylamide]"
27,63 nM,CN(Cc1ccc(N2CCCCC2=O)cc1)C(=O)[C@H](Cc1ccccc1)N(Cc1ccc(N2CCOCC2)cc1)C(=O)C=Cc1ccc(C(F)(F)F)nc1 [Example 274]
